Tests used:
Test in all cases: relative viability (nuclei count vs DMSO), 5 days (fraction); higher = more cells survive
EKVX = system: EKVX
How it was run: (§1)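 For relative viability, nuclei counts in treated wells were divided by those in vehicle wells. Lung cancer cell lines had been pin-tool dosed in 1536-well plates the day after seeding and cultured for 5 days, then fixed and stained in one step (final 0.05% Triton X-100, 1% formaldehyde, 1 ug/ml Hoechst) and imaged at 4×. Doses were one drug alone or a fixed anchor-drug dose plus five library-drug doses (not always all listed) in √10 steps, and values are duplicate-plate medians.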

NCI-H1563 = system: NCI-H1563
How it was run: as §1

EMC-BAC-2 = system: EMC-BAC-2
How it was run: as §1

NCI-H322M = system: NCI-H322M
How it was run: as §1

LK-2 = system: LK-2
How it was run: as §1

NCI-H520 = system: NCI-H520
How it was run: as §1

NCI-H727 = system: NCI-H727
How it was run: as §1

CAL-12T = system: CAL-12T
How it was run: as §1

ABC-1 = system: ABC-1
How it was run: as §1

NCI-H358 = system: NCI-H358
How it was run: as §1

PC-3 [JPC-3] = system: PC-3 [JPC-3]
How it was run: as §1

BEN = system: BEN
How it was run: as §1

NCI-H1651 = system: NCI-H1651
How it was run: as §1

NCI-H838 = system: NCI-H838
How it was run: as §1

COR-L 105 = system: COR-L 105
How it was run: as §1

LU99A = system: LU99A
How it was run: as §1

201T = system: 201T
How it was run: as §1

NCI-H460 = system: NCI-H460
How it was run: as §1

NCI-H2023 = system: NCI-H2023
How it was run: as §1

HCC-44 = system: HCC-44
How it was run: as §1

HCC-15 = system: HCC-15
How it was run: as §1

CCNC(=O)c1noc(-c2cc(C(C)C)c(O)cc2O)c1-c1ccc(CN2CCOCC2)cc1 [Luminespib] + C[C@@H](Oc1cc(-c2cnn(C3CCNCC3)c2)cnc1N)c1c(Cl)ccc(F)c1Cl [Crizotinib] (partner 1 µM)
relative viability (EKVX; first compound 0.002 µM): 0.985 | relative viability (EKVX; first compound 0.006325 µM): 0.989 | relative viability (EKVX; first compound 0.02 µM): 0.97 | relative viability (EKVX; first compound 0.06325 µM): 0.472 | relative viability (EKVX; first compound 0.2 µM): 0.218 | relative viability (NCI-H1563; first compound 0.002 µM): 0.937 | relative viability (NCI-H1563; first compound 0.006325 µM): 0.834 | relative viability (NCI-H1563; first compound 0.02 µM): 0.811 | relative viability (NCI-H1563; first compound 0.06325 µM): 0.473 | relative viability (NCI-H1563; first compound 0.2 µM): 0.536 | relative viability (EMC-BAC-2; first compound 0.002 µM): 0.844 | relative viability (EMC-BAC-2; first compound 0.006325 µM): 0.772 | relative viability (EMC-BAC-2; first compound 0.02 µM): 0.584 | relative viability (EMC-BAC-2; first compound 0.06325 µM): 0.729 | relative viability (EMC-BAC-2; first compound 0.2 µM): 0.759 | relative viability (NCI-H322M; first compound 0.002 µM): 0.925 | relative viability (NCI-H322M; first compound 0.006325 µM): 0.924 | relative viability (NCI-H322M; first compound 0.02 µM): 0.718 | relative viability (NCI-H322M; first compound 0.06325 µM): 0.898 | relative viability (NCI-H322M; first compound 0.2 µM): 0.808 | relative viability (LK-2; first compound 0.002 µM): 0.215 | relative viability (LK-2; first compound 0.006325 µM): 0.217 | relative viability (LK-2; first compound 0.02 µM): 0.269 | relative viability (LK-2; first compound 0.06325 µM): 0.231 | relative viability (LK-2; first compound 0.2 µM): 0.196 | relative viability (NCI-H520; first compound 0.002 µM): 0.831 | relative viability (NCI-H520; first compound 0.006325 µM): 0.976 | relative viability (NCI-H520; first compound 0.02 µM): 0.845 | relative viability (NCI-H520; first compound 0.06325 µM): 0.0957 | relative viability (NCI-H520; first compound 0.2 µM): 0.0995 | relative viability (NCI-H727; first compound 0.002 µM): 0.757 | relative viability (NCI-H727; first compound 0.006325 µM): 0.744 | relative viability (NCI-H727; first compound 0.02 µM): 0.739 | relative viability (NCI-H727; first compound 0.06325 µM): 0.212 | relative viability (NCI-H727; first compound 0.2 µM): 0.204 | relative viability (CAL-12T; first compound 0.002 µM): 0.7 | relative viability (CAL-12T; first compound 0.006325 µM): 0.635 | relative viability (CAL-12T; first compound 0.02 µM): 0.636 | relative viability (CAL-12T; first compound 0.06325 µM): 0.06 | relative viability (CAL-12T; first compound 0.2 µM): 0.0967 | relative viability (ABC-1; first compound 0.002 µM): 1.55 | relative viability (ABC-1; first compound 0.006325 µM): 0.877 | relative viability (ABC-1; first compound 0.02 µM): 1.06 | relative viability (ABC-1; first compound 0.06325 µM): 0.19 | relative viability (ABC-1; first compound 0.2 µM): 0.18 | relative viability (NCI-H358; first compound 0.002 µM): 0.699 | relative viability (NCI-H358; first compound 0.006325 µM): 0.647 | relative viability (NCI-H358; first compound 0.02 µM): 0.608 | relative viability (NCI-H358; first compound 0.06325 µM): 0.0797 | relative viability (NCI-H358; first compound 0.2 µM): 0.0988 | relative viability (PC-3 [JPC-3]; first compound 0.002 µM): 1.01 | relative viability (PC-3 [JPC-3]; first compound 0.006325 µM): 0.875 | relative viability (PC-3 [JPC-3]; first compound 0.02 µM): 0.971 | relative viability (PC-3 [JPC-3]; first compound 0.06325 µM): 0.996 | relative viability (PC-3 [JPC-3]; first compound 0.2 µM): 0.933 | relative viability (BEN; first compound 0.002 µM): 0.792 | relative viability (BEN; first compound 0.006325 µM): 0.834 | relative viability (BEN; first compound 0.02 µM): 0.416 | relative viability (BEN; first compound 0.06325 µM): 0.341 | relative viability (BEN; first compound 0.2 µM): 0.203 | relative viability (NCI-H1651; first compound 0.002 µM): 0.85 | relative viability (NCI-H1651; first compound 0.006325 µM): 0.901 | relative viability (NCI-H1651; first compound 0.02 µM): 0.787 | relative viability (NCI-H1651; first compound 0.06325 µM): 0.813 | relative viability (NCI-H1651; first compound 0.2 µM): 0.63 | relative viability (NCI-H838; first compound 0.002 µM): 0.947 | relative viability (NCI-H838; first compound 0.006325 µM): 0.78 | relative viability (NCI-H838; first compound 0.02 µM): 0.755 | relative viability (NCI-H838; first compound 0.06325 µM): 0.285 | relative viability (NCI-H838; first compound 0.2 µM): 0.101 | relative viability (COR-L 105; first compound 0.002 µM): 0.996 | relative viability (COR-L 105; first compound 0.006325 µM): 0.897 | relative viability (COR-L 105; first compound 0.02 µM): 0.976 | relative viability (COR-L 105; first compound 0.06325 µM): 0.165 | relative viability (COR-L 105; first compound 0.2 µM): 0.224 | relative viability (LU99A; first compound 0.002 µM): 0.606 | relative viability (LU99A; first compound 0.006325 µM): 0.628 | relative viability (LU99A; first compound 0.02 µM): 0.343 | relative viability (LU99A; first compound 0.06325 µM): 0.127 | relative viability (LU99A; first compound 0.2 µM): 0.112 | relative viability (201T; first compound 0.002 µM): 0.995 | relative viability (201T; first compound 0.006325 µM): 0.981 | relative viability (201T; first compound 0.02 µM): 0.968 | relative viability (201T; first compound 0.06325 µM): 1.03 | relative viability (201T; first compound 0.2 µM): 1.03 | relative viability (NCI-H460; first compound 0.002 µM): 0.957 | relative viability (NCI-H460; first compound 0.006325 µM): 0.705 | relative viability (NCI-H460; first compound 0.02 µM): 0.0276 | relative viability (NCI-H460; first compound 0.06325 µM): 0.0089 | relative viability (NCI-H460; first compound 0.2 µM): 0.0097 | relative viability (NCI-H2023; first compound 0.002 µM): 0.772 | relative viability (NCI-H2023; first compound 0.006325 µM): 0.586 | relative viability (NCI-H2023; first compound 0.02 µM): 0.569 | relative viability (NCI-H2023; first compound 0.06325 µM): 0.0759 | relative viability (NCI-H2023; first compound 0.2 µM): 0.0557 | relative viability (HCC-44; first compound 0.002 µM): 0.843 | relative viability (HCC-44; first compound 0.006325 µM): 0.768 | relative viability (HCC-44; first compound 0.02 µM): 1 | relative viability (HCC-44; first compound 0.06325 µM): 0.12 | relative viability (HCC-44; first compound 0.2 µM): 0.091 | relative viability (HCC-15; first compound 0.002 µM): 0.836 | relative viability (HCC-15; first compound 0.006325 µM): 0.863 | relative viability (HCC-15; first compound 0.02 µM): 0.901 | relative viability (HCC-15; first compound 0.06325 µM): 0.473 | relative viability (HCC-15; first compound 0.2 µM): 0.412

— the supplement of paper PMC10307832
